Laboratory results as given in patent US4278596A, “Analgesic pentapeptides” (American Home Products Corporation, priority 1978, dated 1981).

Assays:
[1] = tested on: rats; test: rat-tail flick method of D'Amour and Smith; assay type: in vivo; conditions: 5.0 mg/kg. i.v.
Protocol: In this procedure, a representative polypeptide of this invention, N-Me-Tyr-D-Ser-Gly-N-Me-Phe-D-Ser-NH2,acetate, produced significant analgesia in rats upon administration at a dose as low as 0.1 mg/kg. intravenously, and 0.5 mg/kg. subcutaneously.
When N-Me-Tyr-D-Ser-Gly-N-Me-Phe-D-Ser-NH2, acetate was tested in the rat-tail flick procedure of D'Amour and Smith (supra), the following results were obtained: […]

[2] = tested on: guinea pig ileum; conditions: like morphine; cited from earlier work
[3] = tested on: mouse vas deferns; conditions: mouse vas deferens, like morphine; cited from earlier work
[4] = tested on: opiate receptor; conditions: brain homogenates; cited from earlier work

Compound | dead [1] | effect on electrically evoked contractions [2] | effect on electrically evoked contractions [3] | effect on stereospecific receptor binding of 3H-naloxone [4]
CN[C@@H](Cc1ccc(O)cc1)C(=O)N[C@H](CO)C(=O)NCC(=O)N(C)[C@@H](Cc1ccccc1)C(=O)N[C@H](CO)C(N)=O [N-Methyl-Tyrosyl-D-Serylglycyl-N-MethylPhenylalanyl-D-Serinamide. Acetate] | 3/6 | – | – | –
H-Tyr-Gly-Gly-Phe-Leu-OH [leucine-enkephalin] | – | block electrically evoked contractions | block electrically evoked contractions | inhibit
H-Tyr-Gly-Gly-Phe-Met-OH [methionine-enkephalin] | – | block electrically evoked contractions | block electrically evoked contractions | inhibit
